Results published in ChEMBL document CHEMBL3137667, “[Drug-induced liver injury; fourteenth updated edition of the bibliographic database of liver injuries and related drugs]” (Gastroenterol Clin Biol, 2004).

Tests used:
[1] = Highest frequency of moderate liver toxicity observed during clinical trials, expressed as a percentage. [column '% BIOL' in source]; settings: human
[2] = Highest frequency of acute liver toxicity observed during clinical trials, expressed as a percentage. [column '% AIGUE' in source]; settings: human
[3] = Presence of at least one case with successful reintroduction. [column 'REINT' in source]; settings: human
[4] = Comments (NB not yet translated). [column 'COMMENTAIRES' in source]; settings: human
[5] = Times to onset, minimal and maximal, observed in the indexed observations. [column 'DELAI' in source]; settings: human
[6] = Proposed mechanism(s) of liver damage. [column 'MEC' in source]; settings: human
[7] = human, serum
[8] = human, serum; remark: listed apart in the source
[9] = human
[10] = human; remark: listed apart in the source
[11] = human; remark: listed apart in the source
[12] = human, serum, 4383 h
[13] = human; remark: listed apart in the source
[14] = human; remark: listed apart in the source
[15] = human; remark: listed apart in the source
[16] = human; remark: listed apart in the source
[17] = human; remark: listed apart in the source
[18] = human; remark: listed apart in the source
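Throughout, for Hepatotoxicity (association with vascular disease): count of indexed literature references reporting vascular liver injury in humans, e.g. peliosis hepatitis, hepatic veno-occlusive disease or Budd-Chiari syndrome.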
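Throughout, for Hepatotoxicity (benign tumour): value is a count of indexed literature references citing a benign tumour confirmed by histopathology.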
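Throughout, for Hepatotoxicity (choleostasis): human cholestatic liver injury, shown by histopathology or by peak ALT or AST elevation over alkaline phosphatase ratio below 2, value counts indexed literature reports.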
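Throughout, for Hepatotoxicity (chronic liver disease): chronic liver injury confirmed by histopathology or persistently raised serum aminotransferase activity beyond 6 months, value given as the count of indexed literature references.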
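Throughout, for Hepatotoxicity (cirrhosis): value is a count of indexed literature references reporting cirrhosis confirmed by histopathology.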
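Throughout, for Hepatotoxicity (cytolytic): human cytolytic liver injury, shown by histopathology or by a ratio above 5 of peak ALT or AST elevation to alkaline phosphatase elevation, value counts indexed references.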
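Throughout, for Hepatotoxicity (granulomatous hepatitis): value is a count of indexed literature references reporting granulomatous liver disease confirmed by histopathology.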
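Throughout, for Hepatotoxicity (malignant tumour): malignant tumour confirmed by histopathology, value gives the count of indexed literature references reporting it.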
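Throughout, for Hepatotoxicity (severe hepatitis): human clinical data: severe hepatitis, meaning potentially life-threatening liver failure or clinically observed cases, the value counts how many indexed literature references report it.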
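Throughout, for Hepatotoxicity (steatosis): steatosis confirmed by histopathology, value is the count of indexed references.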

| Molecule | Hepatotoxicity (moderate) [1] | Hepatotoxicity (acute) [2] | Hepatotoxicity (successful reintroduction) [3] | Hepatotoxicity (comment) [4] | Hepatotoxicity (time to onset) [5] | Hepatotoxicity (mechanism) [6] | Hepatotoxicity (moderate) [7] | Hepatotoxicity (acute) [8] | Hepatotoxicity (cytolytic) [9] | Hepatotoxicity (choleostasis) [10] | Hepatotoxicity (severe hepatitis) [11] | Hepatotoxicity (chronic liver disease) [12] | Hepatotoxicity (cirrhosis) [13] | Hepatotoxicity (granulomatous hepatitis) [14] | Hepatotoxicity (association with vascular disease) [15] | Hepatotoxicity (steatosis) [16] | Hepatotoxicity (malignant tumour) [17] | Hepatotoxicity (benign tumour) [18] | also measured |
| --- | --- | --- | --- | --- | --- | --- | --- | --- | --- | --- | --- | --- | --- | --- | --- | --- | --- | --- | --- |
| Cc1cn([C@H]2C=C[C@@H](CO)O2)c(=O)[nH]c1=O [STAVUDINE] | 65.6% | 17.1% | yes | REACTIVATION_HVB/HVC | 6 days - 5 years | Dose-dependant, Mitochondrial toxicity, Toxic | 13 | 29 | 22 | 5 | 14 | 0 | 0 | 0 | 0 | 25 | 0 | 0 |  |
| O=C1Nc2ccccc2C1(c1ccc(O)cc1)c1ccc(O)cc1 [OXYPHENISATINE] | 0% | 0% | yes | AC_ANTI-ADN/-N/-ML | 1 week - 13 years | Allergic | 0 | 6 | 1 | 0 | 1 | 27 | 8 | 0 | 0 | 0 | 0 | 0 |  |
| Cc1ncc([N+](=O)[O-])n1CC(O)CCl (configuration not stated) [ORNIDAZOLE] | 0% | 0% | yes | AC_ANTI-ML/-N | 3 days - 6 months | Allergic | 1 | 2 | 2 | 0 | 0 | 1 | 0 | 0 | 0 | 0 | 0 | 0 |  |
| CCCNC(=O)NS(=O)(=O)c1ccc(Cl)cc1 [CHLORPROPAMIDE] | 25% | 0.5% | yes | RC/TOLBUTAMIDE/TOLAZAMIDE #CBP | 2 weeks - 2 years | Allergic, Dose-dependant | 3 | 34 | 9 | 29 | 1 | 0 | 0 | 4 | 0 | 0 | 0 | 0 |  |
| NNc1nncc2ccccc12 [HYDRALAZINE] |  |  | yes | CHOLANGITE AC_ANTI-N | 2 days - 3 years |  | 4 | 9 |  |  |  | 3 | 0 |  | 0 | 0 | 0 | 0 | Hepatotoxicity (moderate) ([1]; Liver): 0%; Hepatotoxicity (acute) ([2]; Liver): 0%; Hepatotoxicity (mechanism) ([6]; Liver): Allergic, Toxic; Hepatotoxicity (cytolytic) ([9]; Liver): 6; Hepatotoxicity (choleostasis) ([10]; Liver): 3; Hepatotoxicity (severe hepatitis) ([11]; Liver): 2; Hepatotoxicity (granulomatous hepatitis) ([14]; Liver): 6 |
| CN1CCN2c3ccccc3Cc3ccccc3C2C1 (configuration not stated) [MIANSERIN] | 26% | 0% | yes | RC/NOMIFENSINE | 1 day - 1.8 years | Dose-dependant, Reactive metabolite | 3 | 5 | 3 | 5 | 0 | 0 | 0 | 0 | 0 | 0 | 0 | 0 |  |
| CCn1cc(C(=O)O)c(=O)c2cc(F)c(N3CCNCC3)cc21 [NORFLOXACIN] |  |  | yes | AC_ANTI-N | 1 day - 10 days |  | 15 | 9 |  |  |  | 0 | 0 |  | 0 | 0 | 0 | 0 | Hepatotoxicity (moderate) ([1]; Liver): 7.7%; Hepatotoxicity (acute) ([2]; Liver): 0%; Hepatotoxicity (mechanism) ([6]; Liver): Allergic; Hepatotoxicity (cytolytic) ([9]; Liver): 3; Hepatotoxicity (choleostasis) ([10]; Liver): 6; Hepatotoxicity (severe hepatitis) ([11]; Liver): 0; Hepatotoxicity (granulomatous hepatitis) ([14]; Liver): 0 |
| NNc1nnc(NN)c2ccccc12 [DIHYDRALAZINE] | 0% | 0.1% | yes | AC_ANTI-MF/-M/-N/-CYP1A2 | 2 days - 3 years | Allergic | 0 | 21 | 17 | 5 | 1 | 4 | 0 | 0 | 0 | 1 | 0 | 0 |  |
| INTERFERON BETA | 100% | 31.2% | yes | AC_ANTI-N/-ML | 3 days - 2 years | Allergic, Dose-dependant | 33 | 10 | 5 | 0 | 1 | 0 | 0 | 0 | 0 | 0 | 0 | 0 |  |
